Experimental data published in paper PMC11486130, “Structure-guided discovery of novel dUTPase inhibitors with anti-Nocardia activity by computational design” (Journal of Enzyme Inhibition and Medicinal Chemistry, 2024).
pIC50, pKd: −log10 of the molar value. In brackets after ≈: the same amount, converted by molar mass. Read-outs that look alike come from different tables or passages of the source.

Legend:
NsdUTPase = NsdUTPase (Nocardia seriolae, UniProt A0ABF7PKI9); assay: NsdUTPase activity assay (PPi Light inorganic pyrophosphate assay kit); format: biochemical; conditions: for activity improvement: NsdUTPase IC50 compared with F0414
Description: The in vitro catalytic activity of NsdUTPase was detected by a PPi Light inorganic pyrophosphate assay kit following manufactory’s manual. […] After 120 min of incubation at room temperature, the luminescence intensity of the reaction was measured by a microplate luminometer at 560 nm.
IC50 was determined using GraphPad Prism software 9 (GraphPad Software, San Diego, CA). All experiments were performed in triplicate, and values (±standard deviations [SD]) are shown. Significant differences were determined using Student’s t-test. *p < 0.05 (considered significant compared with control group); **p < 0.01 (considered highly significant); ***p < 0.001 (considered extremely significant).

[1] = system: N. seriolae strain JCM3360; assay: anti-Nocardia activity, microplate alamar blue assay (MABA); format: cell-based; conditions: two days at 25 °C; for MIC: 48 h
Description: (§1) The MABA method was used to determine the anti-Nocardia activity of compounds according to reported method[34] with modification. N. seriolae strain JCM3360, and N. salmonicida strain JCM4826 were gifted from Prof. Nien, Chung-Yi (National Central University, Taoyuan City, Taiwan), and cultured in M-196 medium (0.4% yeast extract; 1% malt extract; 0.4% dextrose) at 25 °C. Two strains were inoculated into 96-well plates at a concentration of ×10^6 CFU/mL and cultured in the medium, then different concentrations of compounds were added. After two days of incubation at 25 °C, the mixture of 20 μL 10× alamar blue and 50 μL 5% Tween-80 were added to observe the colour change. Minimum inhibitory concentration (MIC) is defined as the minimum compound concentration of the well varying from blue to pink.

[2] = system: N. salmonicida strain JCM4826; assay: as above; format: cell-based; conditions: two days at 25 °C; for MIC: 48 h
Description: as §1

[3] = Cytotoxicity, CCK-8 assay; format: cell-based; conditions: concentration 30 µM (about 10.0 mg/L), read-out: cell viability
Description: The cytotoxicity of compounds 4b and 12b was determined by CCK-8 assay. A549 and Marc cells were cultured for the test. Concentrations of compounds varied from 0.03 to 30 µM. Meanwhile, 1% DMSO was used as a negative control. After incubation for 24 h, WST-8 was added. The experimental method referred to the kit instructions. All the experiments were repeated three times.

NsdUTPase WT = biological target: T1, NsdUTPase WT (Nocardia seriolae, UniProt A0ABF7PKI9); assay: Kd to WT NsdUTPase; format: binding, N. seriolae
T1 sequence (A0ABF7PKI9 1-166): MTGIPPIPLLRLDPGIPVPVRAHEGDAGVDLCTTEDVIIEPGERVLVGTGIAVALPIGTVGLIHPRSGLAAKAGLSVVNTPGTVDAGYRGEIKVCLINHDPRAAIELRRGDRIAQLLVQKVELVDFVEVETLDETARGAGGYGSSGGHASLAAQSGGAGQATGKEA

[4] = in vitro enzyme inhibitory activity, read-out: IC50 against NsdUTPase
[5] = African green monkey, Marc cells

| Molecule | pIC50 (NsdUTPase; [4]) | MIC [1] | MIC [2] | other results |
| --- | --- | --- | --- | --- |
| 1-(Cyclopropylmethyl)-2-(4-phenoxyphenyl)-5-(trifluoromethyl)-1H-benzo[d]imidazole [12f] | < 4.70 | – | – | MIC N. seriolae [1]: 16 µg/mL; MIC N. salmonicida [2]: 8 µg/mL |
| 1-Allyl-6-fluoro-5-methyl-2-(6-phenoxypyridin-3-yl)-1H-benzo[d]imidazole [12i] | 5.11 | – | – | MIC N. seriolae [1]: 4 µg/mL; MIC N. salmonicida [2]: 4 µg/mL |
| C=CCn1c(/C=C/c2ccccc2)nc2cc(C(F)(F)F)ccc21 [4b, (E)-1-Allyl-2-styryl-5-(trifluoromethyl)-1H-benzo[d]imidazole] | – | 1 µg/mL (≈ 3.05 µM) | 0.5 µg/mL (≈ 1.52 µM) | pIC50 (NsdUTPase): 6.00; activity improvement (NsdUTPase): more than 20 fold; viability at 24 h, 30 µM [3, 5]: > 70%; viability at 24 h, 30 µM ([3]; human, A549 cells): > 70%; pKd (NsdUTPase WT): 4.99 |
| C=CCn1c(/C=C/c2ccccc2)nc2c(C)cccc21 [4d, (E)-1-Allyl-4-methyl-2-styryl-1H-benzo[d]imidazole] | < 4.70 | 16 µg/mL (≈ 58.3 µM) | 16 µg/mL (≈ 58.3 µM) | – |
| C=CCn1c(/C=C/c2ccccc2)nc2cc(C#N)ccc21 [4e, (E)-1-Allyl-2-styryl-1H-benzo[d]imidazole-5-carbonitrile] | < 4.70 | > 50 µg/mL | 16 µg/mL (≈ 56.1 µM) | – |
| C=CCn1c(/C=C/c2ccc(N(C)C)cc2)nc2ccccc21 [4g, (E)-4-(2-(1-Allyl-1H-benzo[d]imidazol-2-yl)vinyl)-N,N-dimethylaniline] | 5.53 | > 50 µg/mL | 16 µg/mL (≈ 52.7 µM) | – |
| C=CCn1c(/C=C/c2ccccc2)nc2cc(C(=O)c3ccccc3)ccc21 [4h, (E)-(1-Allyl-2-styryl-1H-benzo[d]imidazol-5-yl)(phenyl)methanone] | 5.02 | 8 µg/mL (≈ 22 µM) | 8 µg/mL (≈ 22 µM) | – |
| C=CCn1c(/C=C/c2ccccc2OC)nc2cc(C(=O)c3ccccc3)ccc21 [4i, (E)-(1-Allyl-2-(2-methoxystyryl)-1H-benzo[d]imidazol-5-yl)(phenyl)methanone] | 5.12 | 8 µg/mL (≈ 20.3 µM) | 4 µg/mL (≈ 10.1 µM) | – |
| C=CCn1c(-c2ccc(Oc3ccccc3)cc2)nc2ccccc21 [8a, 1-Allyl-2-(4-phenoxyphenyl)-1H-benzo[d]imidazole] | 5.58 | 4 µg/mL (≈ 12.3 µM) | 4 µg/mL (≈ 12.3 µM) | – |
| C=CCn1c(-c2ccc(-c3ccccc3)cc2)nc2ccccc21 [8b, 2-([1,1′-Biphenyl]-4-yl)-1-allyl-1H-benzo[d]imidazole] | – | 4 µg/mL (≈ 12.9 µM) | 4 µg/mL (≈ 12.9 µM) | – |
| C=CCn1c(/C(C)=C/c2ccccc2)nc2ccccc21 [8c, (E)-1-Allyl-2-(1-phenylprop-1-en-2-yl)-1H-benzo[d]imidazole] | < 4.70 | 8 µg/mL (≈ 29.2 µM) | 4 µg/mL (≈ 14.6 µM) | – |
| C=CCn1c(-c2cccc(Oc3ccccc3)c2)nc2ccccc21 [8d, 1-Allyl-2-(3-phenoxyphenyl)-1H-benzo[d]imidazole] | 4.80 | > 50 µg/mL | 32 µg/mL (≈ 98 µM) | – |
| C=CCn1c(-c2ccc3ccccc3c2)nc2ccccc21 [8e, 1-Allyl-2-(naphthalen-2-yl)-1H-benzo[d]imidazole] | 4.98 | 4 µg/mL (≈ 14.1 µM) | 4 µg/mL (≈ 14.1 µM) | – |
| C=CCn1c(-c2ccc(Oc3ccccc3)cc2)nc2cc(C(F)(F)F)ccc21 [12a, 1-Allyl-2-(4-phenoxyphenyl)-5-(trifluoromethyl)-1H-benzo[d]imidazole] | 5.08 | > 50 µg/mL | 16 µg/mL (≈ 40.6 µM) | – |
| C=CCn1c(-c2ccc(Oc3ccccc3)cc2)nc2cc(C)ccc21 [12b, 1-Allyl-5-methyl-2-(4-phenoxyphenyl)-1H-benzo[d]imidazole] | – | 2 µg/mL (≈ 5.87 µM) | 1 µg/mL (≈ 2.94 µM) | pIC50 (NsdUTPase): 6.15; activity improvement (NsdUTPase): more than 20 fold; viability at 24 h, 30 µM [3, 5]: > 70%; viability at 24 h, 30 µM ([3]; human, A549 cells): > 70%; pKd (NsdUTPase WT): 5.13 |
| C=CCn1c(-c2ccc(Oc3ccccc3)cc2)nc2cc(C(=O)c3ccccc3)ccc21 [12c, (1-Allyl-2-(4-phenoxyphenyl)-1H-benzo[d]imidazol-5-yl)(phenyl)methanone] | 4.81 | 16 µg/mL (≈ 37.2 µM) | 8 µg/mL (≈ 18.6 µM) | – |
| C=CCn1c(-c2ccc(Oc3ccccc3)cc2)nc2cc(C)c(C)cc21 [12d, 1-Allyl-5,6-dimethyl-2-(4-phenoxyphenyl)-1H-benzo[d]imidazole] | 5.43 | 8 µg/mL (≈ 22.6 µM) | 4 µg/mL (≈ 11.3 µM) | – |
| C#CCn1c(-c2ccc(Oc3ccccc3)cc2)nc2cc(C(F)(F)F)ccc21 [12e, 2-(4-Phenoxyphenyl)-1-(prop-2-yn-1-yl)-5-(trifluoromethyl)-1H-benzo[d]imidazole] | 4.83 | 32 µg/mL (≈ 81.6 µM) | 16 µg/mL (≈ 40.8 µM) | – |
| C=CCn1c(-c2ccc(Oc3cccnc3)cc2)nc2cc(C(F)(F)F)ccc21 [12g, 1-Allyl-2-(4-(pyridin-3-yloxy)phenyl)-5-(trifluoromethyl)-1H-benzo[d]imidazole] | < 4.70 | > 50 µg/mL | 32 µg/mL (≈ 80.9 µM) | – |
| C=CCn1c(-c2ccc(Oc3ccccc3)nc2)nc2cc(C(F)(F)F)ccc21 [12h, 1-Allyl-2-(6-phenoxypyridin-3-yl)-5-(trifluoromethyl)-1H-benzo[d]imidazole] | < 4.70 | > 50 µg/mL | 32 µg/mL (≈ 80.9 µM) | – |
| C=CCn1c(/C=C/c2ccccc2)nc2ccccc21 [F0414, (E)-1-Allyl-2-styryl-1H-benzo[d]imidazole, reference compound] | < 4.70 | 8 µg/mL (≈ 30.7 µM) | 2 µg/mL (≈ 7.68 µM) | – |
| CS(=O)(=O)c1ccc([C@@H](O)[C@@H](CF)NC(=O)C(Cl)Cl)cc1 [Florfenicol, reference compound] | – | 4 µg/mL (≈ 11.2 µM) | 16 µg/mL (≈ 44.7 µM) | – |
| CN(C)[C@@H]1C(O)=C(C(N)=O)C(=O)[C@@]2(O)C(O)=C3C(=O)c4c(O)cccc4[C@@](C)(O)[C@H]3[C@H](O)[C@@H]12 [Oxytetracycline, reference compound] | – | 1 µg/mL (≈ 2.17 µM) | 4 µg/mL (≈ 8.69 µM) | – |
| COc1cc(NS(=O)(=O)c2ccc(N)cc2)nc(OC)n1 [Sulfadimethoxine, reference compound] | – | > 50 µg/mL | 12.5 µg/mL (≈ 40.3 µM) | MIC N. seriolae [1]: >50 µg/mL |
| Cc1ccnc(NS(=O)(=O)c2ccc(N)cc2)n1 [Sulfamerazin, reference compound] | – | – | – | MIC N. seriolae [1]: >50 µg/mL; MIC N. seriolae ([1]; listed as sulfamerazin): > 50 µg/mL; MIC N. salmonicida [2]: >50 µg/mL |
| (E)-1-Allyl-2-styryl-1H-benzo[d]imidazol-5-yl acetate [4f] | 4.74 | – | – | MIC N. seriolae [1]: >50 µg/mL; MIC N. salmonicida [2]: 32 µg/mL |
| (E)-1-Allyl-2-styryl-1H-benzo[d]imidazole [4a] | 5.58 | – | – | MIC N. seriolae [1]: 4 µg/mL; MIC N. salmonicida [2]: 2 µg/mL |
| (E)-1-Allyl-2-styryl-1H-benzo[d]imidazole [4c] | 5.42 | – | – | MIC N. seriolae [1]: >50 µg/mL; MIC N. salmonicida [2]: 16 µg/mL |
